Laboratory results published in patent US6784153B1, “Methods of homing molecules to lung using membrane dipeptidase” (The Burnham Institute, priority 1998, dated 2004).

Columns and labels:
uterus = assay: homing of pancreas homing phage to uterus; format: in vivo, mice
Method: (§1) Similar experiments were performed in pancreas using phage displaying the pancreas homing peptide, SWCEPGWCR (SEQ ID NO: 4). In these experiments, histological samples of the pancreas as well as control organs and tissues including lung and skin were prepared and examined by immunostaining as described above. […] Moreover, after intravenous injection of phage displaying SWCEPGWCR (SEQ ID NO: 4), the phage was recovered from uterus at a 6× higher level in comparison to unselected phage. Thus, SWCEPGWCR (SEQ ID NO: 4) homes to both pancreas and uterus.

pancreas [1] = assay: in vivo homing of phage displaying peptides to pancreas; parameters: species or system mice
Method: For lung and pancreas, a mixture of phage libraries containing 10^10 TU was diluted in 200 μl DMEM and injected into the tail vein of anesthetized BALB/c mice (2 month old; Harlan Sprague Dawley; San Diego Calif.); AVERTIN (0.017 ml/g) was used as anesthetic (Pasqualini and Ruoslahti, supra, 1996). After 1-4 minutes, mice were snap frozen in liquid nitrogen or, after about 5 minutes of phage circulation, the mice were perfused through the heart with 5-10 ml of DMEM (SIGMA; St. Louis Mo.). To recover the phage, the organs from the perfused mice or partially thawed organs from snap frozen mice were collected and weighed, then were homogenized in 1 ml DMEM-PI (DMEM containing protease inhibitors (PI); phenylmethyl sulfonyl fluoride (PMSF; 1 mM), aprotinin (20 μg/ml), leupeptin (1 μg/ml)).
Organ samples were washed 3 times with ice cold DMEM-PI containing 1% bovine serum albumin (BSA), then directly incubated with 1 ml K91-kan bacteria for 1 hr. Ten ml NZY medium containing 0.2 μg/ml tetracycline (NZY/tet) was added to the bacterial culture, the mixture was incubated in a 37° C. shaker for 1 hr, then 200 μl aliquots were plated in agar plates containing 40 μg/ml tetracycline (tet/agar).
(§2) Approximately 250 to 300 individual bacterial colonies containing phage recovered from the various organs or tissues were grown for 16 hr in 5 ml NZY/tet. In some experiments, approximately 1000 individual bacteria containing phage were picked and the phage were amplified in 2 ml of NZY/tet or the entire plate containing phage was scraped, pooled and grown in bulk and processed for injection. Where phage were cultured separately, the cultures were pooled and the phage were injected into mice or rats as described above for a second round of in vivo panning. In some experiments, a third or fourth round of panning was performed. Phage DNA was purified from individual bacterial colonies obtained and the DNA sequences encoding the peptides expressed by selected phage were determined (see Koivunen et al., supra, 1994b).
After two or three rounds of in vivo panning of mice injected with a cyclic CX7C (SEQ ID NO: 24) phage display library, various pancreas homing peptides were identified (Table 3). In particular, the peptide sequence SWCEPGWCR (SEQ ID NO: 4) appeared repeatedly in the pancreas. To determine the specificity of SWCEPGWCR (SEQ ID NO: 4), a phage displaying the sequence was amplified individually, diluted to the same input titer and administered to mice. Following administration, control brain organ was removed and the number of TU of phage in each pancreas and was determined.

pancreas [2] = assay: immunohistologic analysis of pancreas homing phage; format: in vivo, mice
Method: (§3) Phage displaying homing peptides were detected in lung, pancreas and skin by immunostaining histologic sections obtained 5 min after administration of phage expressing a lung, pancreas or skin homing peptide (“peptide-phage”) to a mouse. Following administration of the peptide-phage, mice were handled as described above and various organs, including lung, pancreas and skin, were removed and fixed in Bouin's solution (SIGMA). Histologic sections were prepared and reacted with anti-M13 (phage) antibodies (Pharmacia Biotech; see U.S. Pat. No. 5,622,699, supra, 1997; Pasqualini and Ruoslahti, supra, 1996). Visualization of the bound anti-M13 antibody was performed using a second antibody conjugated to peroxidase (SIGMA) according to the manufacturer's instructions.
as §1

skin [3] = assay: in vivo homing of phage displaying peptides to skin; parameters: species or system mice
Method: For in vivo panning of skin, two month old BALB/c nude mice were used to avoid contamination by hair. The mice were injected intravenously with phage as described above and, after perfusion through the heart, the skin was removed in large sections and placed on an ice cold plate with the hypodermis facing up. The skin was scraped with a scalpel to remove mostly hypodermis, which was then processed for phage recovery as described below.
as §2
in After two or three rounds of in vivo panning of mice injected with a cyclic CX3CX3CX3C (SEQ ID NO: 25) phage display library, the peptide sequence CVALCREACGEGC (SEQ ID NO: 3), which appeared repeatedly in skin, was identified (Table 1). To determine the specificity of skin homing of the sequence CVALCREACGEGC (SEQ ID NO: 3), phage displaying the peptide was amplified individually, diluted to the same input titer and administered to mice. Following administration, control kidney and brain organ were removed and the number of TU of phage in skin, kidney and brain was determined.
Peptides that were identified more than one time during screening are indicated by an asterisk. For example, 14% of recovered CX3CX3CX3C (SEQ ID NO: 25) phage that homed to head skin had the sequence CVDVCCDGCPVCC (SEQ ID NO: 437). Phage having the sequence RVPLSGDVEH (SEQ ID NO: 438), LRVMSFTSGQ (SEQ ID NO: 439), or RFSVGSLFGS (SEQ ID NO: 440) each constituted 14% of recovered CX10C (SEQ ID NO: 30) phage that homed to head skin.

murine MDP = target: T1, murine MDP (Mus musculus, UniProt P31428); assay: phage binding to COS-1 cells transfected with MDP; conditions: 5×10^6 COS-1 cells, 10^10 TU phage
T1 construct: The amplified 1.3 kb murine MDP cDNA was digested with KpnI and XbaI, and inserted into the same sites of the pcDNA3 expression vector; expressed in transfected cells; host or cells: COS-1 cells, pcDNA3 expression vector
T1 sequence (P31428 17-384): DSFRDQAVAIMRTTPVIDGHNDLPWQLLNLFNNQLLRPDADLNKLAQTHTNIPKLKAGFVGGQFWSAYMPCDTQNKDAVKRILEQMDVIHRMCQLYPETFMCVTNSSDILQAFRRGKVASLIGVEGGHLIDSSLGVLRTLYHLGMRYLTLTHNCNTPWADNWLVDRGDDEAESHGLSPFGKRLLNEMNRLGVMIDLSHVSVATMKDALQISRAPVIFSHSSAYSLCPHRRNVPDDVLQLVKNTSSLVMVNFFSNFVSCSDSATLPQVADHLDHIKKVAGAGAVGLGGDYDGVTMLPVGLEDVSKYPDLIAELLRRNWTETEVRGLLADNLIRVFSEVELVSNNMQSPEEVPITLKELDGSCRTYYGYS
Method: The COS-1 cell line, which is known to have low or no detectable level of MDP activity, has been used extensively to study MDP structure and function (Keynan et al., supra, 1996; Keynan et al., Biochem, J. 326:47-51 (1997)). COS-1 cells were trasfected with murine MDP and used to assay binding to SEQ ID NOS: 1 and 2 as described below.
For transfection into COS-1 cells, a murine MDP expression vector was prepared as follows. Total mouse lung RNA was isolated using Qiagen RNA purification columns (Qiagen; Santa Clarita, Calif.) and used as a template for first strand cDNA synthesis with reverse transcriptase and a mixture of random hexamers and poly-dT oligonucleotides (GIBCO/BRL; Grand Island, N.Y.). Mouse MDP cDNA (Pasqualini et al., J. Cell Biol. 130:1189-1196 (1995)) was amplified from the cDNA pool by PCR using the oligonucleotide pair: […] (SEQ ID NO: 446), which contains a KpnI adaptor, and […] (SEQ ID NO: 447), which contains an XbaI adaptor, using Taq polymerase from GIBCO/BRL. The amplified 1.3 kb murine MDP cDNA was digested with KpnI and XbaI, and inserted into the same sites of the pcDNA3 expression vector (Invitrogen; Carlsbad, Calif.) using DNA restriction enzymes and T4 DNA ligase from New England Biolabs (Beverly, Mass.). Successful cloning of the murine MDP cDNA was confirmed by DNA sequencing. Transfection of the COS-1 cells was performed with the Superfect Reagent from Qiagen as recommended by the manufacturer.
Phage binding to COS-1 cells transfected with MDP was determined as follows. Briefly, 10^7 COS-1 cells were transfected with 10 μg of either the MDP expression vector or the vector alone. After 48 hours, cells were scraped gently from the dish, washed once, and subjected to the phage binding assay or membrane dipeptidase activity assay described above. For the phage binding assay, 5×10^6 cells and 10^10 transducing units (TU) of phage input were used. For measurement of membrane dipeptidase activity, 10^6 cells were lysed in 100 μl of PBS/octylglycoside without protease inhibitors. A 10 μl aliquot of the extract was used to measure MDP activity.

skin [4] = assay: immunohistologic analysis of skin homing phage; format: in vivo, mice
Method: as §3
Experiments were performed in skin using phage displaying the skin homing peptide CVALCREACGEGC (SEQ ID NO: 3). In these experiments, histological samples from the skin as well as control organs and tissues including lung and pancreas were prepared and examined by immunostaining as described above.

Row | Sequence | phage recovered from uterus in comparison to unselected phage (uterus; after intravenous injection) [×] | staining of uterus (uterus; immunostaining) | % OF MOTIF AMONG ALL CLONES (pancreas [1]; PANCREAS (value printed on the SKIN heading line)) [%] | pancreas/brain phage ratio (pancreas [1]; PANCREAS section, pancreas as compared to brain) | phage bound to pancreas than to brain (pancreas [1]; individually amplified phage) | enrichment of phage to the pancreas as compared to unselected phage (pancreas [1]; mouse, in vivo) [×] | selectivity for pancreas over unselected phage and over brain (pancreas [1]; mouse, in vivo) [fold] | immunostaining of pancreas (pancreas [2]; 5 min after phage) | staining of lung and skin after pancreas homing phage (pancreas [2]; control tissues) | % OF MOTIF AMONG ALL CLONES (skin [3]; SKIN) [%] | skin/brain phage ratio (skin [3]; SKIN section) | phage bound to skin than to kidney or brain (skin [3]; individually amplified phage) [×] | enriched in skin over unselected phage (skin [3]; mouse, in vivo) [×] | selectivity for skin over unselected phage and over background in brain and kidney (skin [3]; mouse, in vivo) [fold] | phage bound to MDP transfected cells than to mock transfected cells (murine MDP) | immunostaining of skin (skin [4]; 5 min after phage) | staining of lung and pancreas after skin homing phage (skin [4]; control tissues)
1 | SWCEPGWCR [pancreas homing peptide] | 6 | some staining of blood vessels within the uterus | 9 | 20 | 10 × and up to 20 × | 22 | 20 | staining in the capillaries and larger blood vessels of the exocrine pancreas | nor was any staining observed in lung and skin |  |  |  |  |  |  |  | 
2 | CVALCREACGEGC [skin homing peptide] |  |  |  |  |  |  |  |  |  | 6 | 7 | 7 | 7 | 7 | no specific binding | staining in blood vessels of the hypodermis | no staining was observed in control the lung and pancreas
